Measurements from PMC11995402 (ACS infectious diseases, 2025).
Entries after “also recorded” stand apart in the source; their conditions may differ. Where two headings read alike, the source gives them in different places.

Assays:
[1] = system: T. muris; assay: adult whipworm whole-worm motility inhibition assay; format: cell-based, Trichuris muris; conditions: for worm motility inhibition (in words) / motility inhibition: adult T. muris; for worm motility inhibition (in words): 30 μM (Figure 1); for worm motility inhibition, SAR statement (in words): T. muris, 50 μM, 48 h (Figures 3-5); for motility inhibition: 30 μM
[2] = system: CK2α/PI3Kγ; conditions: cited from earlier work
[3] = system: A. ceylanicum; assay: adult hookworm whole-worm motility inhibition assay; format: cell-based, Ancylostoma ceylanicum; conditions: for worm motility inhibition, SAR statement (in words): A. ceylanicum, 30 μM, 48 h (Figures 3-5); for IC50: motility
[4] = system: HepG2 cells; assay: HepG2 MTT viability assay; conditions: for CC50: read-out: HEPG2 cells CC50 μM (95% CI) 24 h, MTT viability, 24 h
[5] = system: MDR1-MDCK II cells
[6] = in vitro; conditions: dog
[7] = system: MDR1 (P-gp); assay: in vitro; conditions: dog, MDCK-MDR1
[8] = read-out: T. muris IC50 μM (95% CI) 24 h, motility, 24 h
[9] = read-out: T. muris IC50 μM (95% CI) 48 h, motility, 48 h
[10] = read-out: A. ceylanicum IC50 μM (95% CI) 24 h, 24 h
[11] = read-out: A. ceylanicum IC50 μM (95% CI) 48 h, 48 h

In the case of `O=C1NC(=O)/C(=C/c2ccc(-c3ccc(F)cc3O)o2)S1` [AS-252424], the “worm motility inhibition (in words)” value [1] is given as “excellent worm motility inhibition”, the “selectivity for PI3Kγ over PI3Kα” value [2] is given as 30 fold and the IC50 ([2]; read-out: IC50 (dual inhibitor of CK2α/PI3Kγ)) is given as 0.03 µM.

With `N[C@@H]1CCCN(c2c(/C=C3\SC(=O)NC3=O)cccc2-c2ccccc2)C1` [AZD1208] the “worm motility inhibition (in words)” value [1] was “inactive”.

With `O=C(O)c1ccc2c(c1)nc(Nc1cccc(Cl)c1)c1ccncc12` [CX-4945] the “worm motility inhibition (in words)” value [1] was “did not show measurable inhibition of worm motility”.

In the case of `CN1CCCN(C(=O)c2cccc(-c3ccc(C=C4C(=O)Nc5ccc(N)cc54)o3)c2)CC1` [Compound 7], the “worm motility inhibition, SAR statement (in words)” value [1] is reported as “complete loss of activity; also recorded: inactive against both species” and the “worm motility inhibition, SAR statement (in words)” value [3] is reported as “not against A. ceylanicum; also recorded: inactive against both species”.

With `CN1CCCN(C(=O)c2cccc(-c3ccc(C=C4C(=O)Nc5c(Cl)cccc54)o3)c2)CC1` [Compound 8] the “worm motility inhibition, SAR statement (in words)” value [1] was “neither an increase nor decrease to activity”, the IC50 [1, 8] was 42 µM and the IC50 [1, 9] was > 90 µM. The “worm motility inhibition, SAR statement (in words)” value [3] was “hookworm selective; also recorded: neither an increase nor decrease to activity”, the IC50 [3, 10] was 40 µM and the IC50 [3, 11] was 21 µM. For the same compound, the CC50 [4] was 15.5 µM and the “fold increase in cytotoxicity (measured by CC50)” value ([4]; relative to CX-6258) was 2.4 fold.

For `Cc1ccc2c(c1)C(=Cc1ccc(-c3cccc(C(=O)N4CCCN(C)CC4)c3)o1)C(=O)N2` [Compound 10], the “worm motility inhibition, SAR statement (in words)” value [1] was “inactivated the inhibition of both species” and the “worm motility inhibition, SAR statement (in words)” value [3] was “inactivated the inhibition of both species”.

For `CN1CCCN(C(=O)c2cccc(-c3ccc(C=C4C(=O)Nc5ccccc54)o3)c2)CC1` [Compound 11], the “worm motility inhibition, SAR statement (in words)” value [1] was “neither an increase nor decrease to activity”, the IC50 [1, 8] was > 90 µM and the IC50 [1, 9] was > 90 µM. The “worm motility inhibition, SAR statement (in words)” value [3] was “neither an increase nor decrease to activity”, the IC50 [3, 10] was 25.2 µM and the IC50 [3, 11] was 8.8 µM. It also gave a CC50 [4] of 22.2 µM.

In the case of `C[C@H](NC(=O)c1c(N)nn2cccnc12)c1cc2cccc(C#Cc3cnn(C)c3)c2c(=O)n1-c1ccccc1` [IPI-549], the “worm motility inhibition (in words)” value [1] is reported as “did not show measurable inhibition of worm motility”.

With `CN1CCC(CNc2ccc3ncc(-c4cccc(OC(F)(F)F)c4)n3n2)CC1` [SGI-1776] the “worm motility inhibition (in words)” value [1] was “excellent inhibition”.

In the case of `O=C1NC(=O)/C(=C/c2cccc(C(F)(F)F)c2)S1` [SMI-4a], the motility inhibition ([1]; @48 h (Figure 1B)) is reported as 71%.

Work on `CCCOc1ccc(/C=C2\SC(=O)NC2=O)cc1` [SMI-16a] yielded a motility inhibition ([1]; @48 h (Figure 1B)) of 57%.

For `N#Cc1c(-c2ccccc2)cc(-c2cc(Br)ccc2O)[nH]c1=O` [TCS-PIM1], the “worm motility inhibition (in words)” value [1] was “excellent inhibition” and the motility inhibition ([1]; relative to DMSO controls) was 100%.

In the case of `Cc1ccc(-c2csc3ncnc(SCCC(=O)O)c23)cc1` [TTP22], the “worm motility inhibition (in words)” value [1] is reported as “did not show measurable inhibition of worm motility”.

With `CCCSc1ccc2nc(NC(=O)OC)[nH]c2c1` [albendazole] the IC50 ([1]; Trichuris muris, 24 h, read-out: T. muris IC50 μM (95% CI) 24 h) was > 300 µM and the IC50 ([1]; Trichuris muris, 48 h, read-out: T. muris IC50 μM (95% CI) 48 h) was > 300 µM.

With `C[C@H]1O[C@@H](O[C@H]2[C@@H](O)C[C@H](O[C@H]3[C@@H](O)C[C@H](O[C@H]4CC[C@@]5(C)[C@H](CC[C@@H]6[C@@H]5C[C@@H](O)[C@]5(C)[C@@H](C7=CC(=O)OC7)CC[C@]65O)C4)O[C@@H]3C)O[C@@H]2C)C[C@H](O)[C@@H]1O` [digoxin] the “Rank Papp” value ([5]; MDR1-MDCK II cells) was “low”, the recovery ([6]; MDCK-MDR1, mean solution recovery % A to B, MDR1-MDCK II cells) was 77.5% and the recovery ([6]; MDCK-MDR1, mean solution recovery % B to A, MDR1-MDCK II cells) was 92.7%. For the same compound, the Papp A→B [7] was 0.151 ×10⁻⁶ cm/s, the Papp B→A [7] was 3.43 ×10⁻⁶ cm/s and the efflux ratio [7] was 22.8.

Compound `CC(C)C[C@H]1C(=O)O[C@H](Cc2ccc(N3CCOCC3)cc2)C(=O)N(C)[C@@H](CC(C)C)C(=O)O[C@H](C)C(=O)N(C)[C@@H](CC(C)C)C(=O)O[C@H](Cc2ccc(N3CCOCC3)cc2)C(=O)N(C)[C@@H](CC(C)C)C(=O)O[C@H](C)C(=O)N1C` [emodepside] has an IC50 [1, 8] of 0.0143 µM, an IC50 [1, 9] of 0.0345 µM and an IC50 [3, 10] of 0.0033 µM. The IC50 [3, 11] was 0.0011 µM.

In the case of `COCCc1ccc(OCC(O)CNC(C)C)cc1` (stereo not drawn) [metoprolol], the “Rank Papp” value ([5]; MDCK-MDR1) is reported as “high”, the recovery ([6]; MDCK-MDR1) is reported as 97.4% and the Papp A→B [7] is reported as 25.6 ×10⁻⁶ cm/s.

For `CC(C)(C)NCC(O)COc1cccc2c1CC(O)C(O)C2` (stereo not drawn) [nadolol], the “Rank Papp” value ([5]; MDCK-MDR1) was “low”, the recovery ([6]; MDCK-MDR1) was 83.1% and the Papp A→B [7] was 0.05 ×10⁻⁶ cm/s.

With ivermectin the IC50 [1, 8] was > 300 µM and the IC50 [1, 9] was 89.6 µM.
